{
  "source": "patent US12391684B2",
  "about": "“Pharmaceutical formulations and methods for the treatment of gastrointestinal disorders” (Renexxion, LLC, priority 2018, dated 2025)",
  "key": {"[1]": {"assay": "Dehydration profile by thermographic analysis (TGA)", "assay_type": "physicochemical", "conditions": "dry nitrogen, 5° C./minute, 25° C. to 250° C.", "experimental": "Thermographic analysis (TGA) curves were generated for the anhydrate and trihydrate using a Perkin Elmer TGA-7. Three to five milligram samples were weighed into aluminum sample pans and run under dry nitrogen at 5° C./minute from 25° C. to 250° C. The data were exported to Excel to enable plotting."}, "[2]": {"assay": "12-month stability of the anhydrous form in stability chambers (HPLC purity, water content)", "assay_type": "physicochemical", "conditions": "25° C./60% RH", "experimental": "The dihydrochloride salt, anhydrous form of (3S, 4R, 3′R)-6-[4-(4-amino-5-chloro-2-methoxy-benzoylamino)-3-methoxy-piperidin-1-yl]-hexanoic acid 1-azabicyclo[2.2.2]oct-3′-yl ester, was placed in stability chambers with temperature and humidity controlled, for up to 12 months. The temperature was set at 25° C., and the relative humidity was set at 60%. The samples were assayed at time zero, then at 3, 6, 9, and 12 months using an HPLC method. The HPLC conditions were as follows: • Column: Inertsil C8-3, 250 mm length, 3 mm diameter, 5 μm particle size • Mobile Phase A: 2000 mL water+3 mL formic acid • Mobile Phase B: 1000 mL methanol+3 mL formic acid • Flow rate: 0.6 mL/min • Detection wavelength: 275 nm • Injection volume: 20 uL • Time: 50 minutes"}, "[3]": {"assay": "Stability of the trihydrate form stored in bulk in a GMP storage facility", "assay_type": "physicochemical", "conditions": "room temperature, relative humidity >30%, up to 11 years", "experimental": "The trihydrate form was evaluated for stability with regard to purity and strength over a time period of up to 11 years, by storing it in a GMP facility under controlled conditions of temperature and relative humidity (temperature=room temperature and relative humidity >30%)."}, "[4]": {"conditions": "for Resulting Form: Antisolvent Water, Ambient, stirred 3 weeks", "experimental": "Noncompetitive Slurry Experiments for Polymorph Screening: Noncompetitive slurry experiments were performed as a supplemental polymorph screening method. When suspensions of a polymorphic material are prepared, any polymorphic form with a lower solubility (more thermodynamically stable form) can nucleate. The nucleated forms can convert all the residual solids to the nucleated form via solvent-mediated phase transition. Suspensions of the isolated Form I were prepared by adding excess solid to several different solvent systems. The suspensions were stirred vigorously at ambient temperature for 3 weeks. The remaining solids were collected by vacuum filtration and analyzed by powder X-ray diffraction to determine if any changes in the crystalline form of the solids occurred."}},
  "note": "Where a name gives a salt, the structure may show the parent alone. Read-outs that look alike come from different tables or passages of the source.",
  "data": [
    {"smiles": "COc1cc(N)c(Cl)cc1C(=O)N[C@@H]1CCN(CCCCCC(=O)O[C@H]2CN3CCC2CC3)C[C@@H]1OC", "note": "[(3S, 4R, 3′R)-6-[4-(4-amino-5-chloro-2-methoxy-benzoylamino)-3-methoxy-piperidin-1-yl]-hexanoic acid 1-azabicyclo[2.2.2]oct-3′-yl ester]", "values": [
      {"measurement": "Dehydration mass loss (TGA)", "setting": "[1]", "value": "absent"},
      {"measurement": "Purity HPLC (Area %)", "setting": "[2]; 3 months", "value": 99.2, "unit": "Area %"},
      {"measurement": "Water Content", "setting": "[2]; 3 months", "value": 6.47, "unit": "%"},
      {"measurement": "Purity HPLC (Area %)", "setting": "[2]; 6 months", "value": 99.3, "unit": "Area %"},
      {"measurement": "Water Content", "setting": "[2]; 6 months", "value": 8.47, "unit": "%"},
      {"measurement": "Water Content", "setting": "[2]; 6 months, listed as Anhydrous Form of the Dihydrochloride Salt", "value": 8.47, "unit": "%"},
      {"measurement": "Purity HPLC (Area %)", "setting": "[2]; 9 months", "value": 99.2, "unit": "Area %"},
      {"measurement": "Water Content", "setting": "[2]; 9 months", "value": 8.20, "unit": "%"},
      {"measurement": "Purity HPLC (Area %)", "setting": "[2]; 12 months", "value": 99.3, "unit": "Area %"},
      {"measurement": "Water Content", "setting": "[2]; 12 months", "value": 8.43, "unit": "%"},
      {"measurement": "Purity HPLC (Area %)", "setting": "[2]; time 0 months", "value": 99.3, "unit": "Area %"},
      {"measurement": "Water Content", "setting": "[2]; time 0 months", "value": 0.45, "unit": "%"},
      {"measurement": "Water Content", "setting": "[2]; time 0 months, listed as Anhydrous Form of the Dihydrochloride Salt", "value": 0.45, "unit": "%"},
      {"measurement": "Decrease in strength of the active ingredient due to increase in water content", "setting": "[2]; up to 12 months", "value": "approximately 8%"},
      {"measurement": "Purity of the compound versus specifications (Purity HPLC Area %)", "setting": "[2]; up to 12 months", "value": "remained within the specifications"}
    ]},
    {"smiles": "COc1cc(N)c(Cl)cc1C(=O)N[C@@H]1CCN(CCCCCC(=O)O[C@H]2CN3CCC2CC3)C[C@@H]1OC", "note": "[Compound 1, (3S, 4R, 3′R)-6-[4-(4-amino-5-chloro-2-methoxy-benzoylamino)-3-methoxy-piperidin-1-yl]-hexanoic acid 1-azabicyclo[2.2.2]oct-3′-yl ester di-hydrochloride salt]", "values": [
      {"measurement": "Stability under GMP storage", "setting": "[3]", "value": "stable under GMP storage"}
    ]},
    {"smiles": "COc1cc(N)c(Cl)cc1C(=O)N[C@@H]1CCN(CCCCCC(=O)O[C@H]2CN3CCC2CC3)C[C@@H]1OC", "note": "[Form I, (3S, 4R, 3′R)-6-[4-(4-amino-5-chloro-2-methoxy-benzoylamino)-3-methoxy-piperidin-1-yl]-hexanoic acid 1-azabicyclo[2.2.2]oct-3′-yl ester]", "values": [
      {"measurement": "Resulting Form", "setting": "[4]; Solvent 1-Propanol", "value": "Form 1"},
      {"measurement": "Resulting Form", "setting": "[4]; Solvent Acetonitrile", "value": "Form 1"},
      {"measurement": "Resulting Form", "setting": "[4]; Solvent Ethanol", "value": "Form 1"},
      {"measurement": "Resulting Form", "setting": "[4]; Solvent Methanol", "value": "Form 1"},
      {"measurement": "Resulting Form", "setting": "[4]; Solvent Water", "value": "Form 1"},
      {"measurement": "Thermodynamic stability among anhydrous forms", "setting": "[4]; outcome of the slurry experiments", "value": "most thermodynamically stable anhydrous form"}
    ]}
  ]
}
